Test results published in publication PMC11557892, “Structural basis of MICAL autoinhibition” (Nature Communications, 2024).

T1: human MICAL1 (Homo sapiens, UniProt Q8TDZ2)
T1 construct: full length M1-G1067, C-terminal 3C-His8 tag, baculovirus-infected Sf9 cells
T1 sequence (Q8TDZ2 1-1067): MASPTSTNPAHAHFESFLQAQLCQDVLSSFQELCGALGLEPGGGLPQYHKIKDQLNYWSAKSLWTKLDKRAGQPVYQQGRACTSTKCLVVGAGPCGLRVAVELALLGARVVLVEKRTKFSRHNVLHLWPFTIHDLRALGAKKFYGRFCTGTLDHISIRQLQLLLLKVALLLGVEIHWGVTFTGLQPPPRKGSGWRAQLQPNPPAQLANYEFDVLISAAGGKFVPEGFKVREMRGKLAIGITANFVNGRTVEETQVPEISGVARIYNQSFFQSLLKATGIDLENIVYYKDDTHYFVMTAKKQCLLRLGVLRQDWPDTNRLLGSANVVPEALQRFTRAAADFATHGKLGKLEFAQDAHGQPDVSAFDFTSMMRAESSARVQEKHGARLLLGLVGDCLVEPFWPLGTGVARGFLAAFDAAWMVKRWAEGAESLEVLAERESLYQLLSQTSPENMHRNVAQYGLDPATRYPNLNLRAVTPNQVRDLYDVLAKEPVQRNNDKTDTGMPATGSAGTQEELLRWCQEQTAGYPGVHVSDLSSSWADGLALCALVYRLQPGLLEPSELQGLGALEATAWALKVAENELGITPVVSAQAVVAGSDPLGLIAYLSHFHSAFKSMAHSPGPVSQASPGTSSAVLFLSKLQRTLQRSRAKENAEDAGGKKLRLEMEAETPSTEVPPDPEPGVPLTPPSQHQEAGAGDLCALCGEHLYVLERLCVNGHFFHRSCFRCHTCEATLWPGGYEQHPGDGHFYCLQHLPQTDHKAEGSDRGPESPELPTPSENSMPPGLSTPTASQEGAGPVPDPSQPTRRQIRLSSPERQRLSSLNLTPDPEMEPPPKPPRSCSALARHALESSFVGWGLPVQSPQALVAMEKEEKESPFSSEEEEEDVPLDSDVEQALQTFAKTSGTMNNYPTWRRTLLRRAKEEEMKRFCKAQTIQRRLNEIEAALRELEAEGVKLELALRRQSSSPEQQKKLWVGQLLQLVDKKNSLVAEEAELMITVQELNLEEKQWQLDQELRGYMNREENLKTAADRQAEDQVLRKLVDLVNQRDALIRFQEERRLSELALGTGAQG

T2: human MICAL1^ΔCC (residues M1-A917) (human, UniProt Q8TDZ2 1-917)
T2 construct: human MICAL1 lacking the CC domain, residues M1-A917 (MO, L1, CH, L2, LIM, L3); also called MICAL^ΔCC; source: baculovirus-infected Sf9 cells, purified (HisTrap FF, Superdex 200)
T2 sequence (looked up): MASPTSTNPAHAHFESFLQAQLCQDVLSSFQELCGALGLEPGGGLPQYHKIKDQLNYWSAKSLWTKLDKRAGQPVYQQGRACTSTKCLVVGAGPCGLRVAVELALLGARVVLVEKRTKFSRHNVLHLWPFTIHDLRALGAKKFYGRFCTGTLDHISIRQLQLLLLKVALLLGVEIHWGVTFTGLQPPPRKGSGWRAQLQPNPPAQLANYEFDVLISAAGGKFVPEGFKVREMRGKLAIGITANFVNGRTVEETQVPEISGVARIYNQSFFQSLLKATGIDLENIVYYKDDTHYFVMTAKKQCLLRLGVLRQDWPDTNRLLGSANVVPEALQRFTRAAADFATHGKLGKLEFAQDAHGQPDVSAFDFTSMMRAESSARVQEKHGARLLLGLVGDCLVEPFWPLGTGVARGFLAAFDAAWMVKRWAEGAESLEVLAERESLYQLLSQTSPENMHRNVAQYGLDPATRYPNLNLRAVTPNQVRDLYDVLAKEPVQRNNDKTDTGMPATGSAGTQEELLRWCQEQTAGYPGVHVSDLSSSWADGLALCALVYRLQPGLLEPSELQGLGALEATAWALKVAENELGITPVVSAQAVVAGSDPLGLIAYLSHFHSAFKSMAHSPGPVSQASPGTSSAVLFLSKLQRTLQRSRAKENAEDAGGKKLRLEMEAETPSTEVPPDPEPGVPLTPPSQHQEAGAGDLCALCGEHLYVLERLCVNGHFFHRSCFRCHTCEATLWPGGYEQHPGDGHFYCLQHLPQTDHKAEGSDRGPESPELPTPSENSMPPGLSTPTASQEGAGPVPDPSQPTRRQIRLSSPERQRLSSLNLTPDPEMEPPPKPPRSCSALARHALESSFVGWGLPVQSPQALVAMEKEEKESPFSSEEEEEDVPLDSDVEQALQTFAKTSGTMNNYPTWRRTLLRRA


Key:
human MICAL1 = target: T1, human MICAL1; assay: cryo-EM structure, […] Å; format: binding; settings: oxidized state, planar isoalloxazine ring; co-purified, non-covalent; deep cavity of MO domain, stacking with Trp400; autoinhibited full-length enzyme
[1] = target: T2, human MICAL1^ΔCC (residues M1-A917); assay: BLI; biotinylated CC domain immobilised (8.8 µg/ml) on Octet SAX biosensors, MO or MICAL1^ΔCC as analyte; 20 mM HEPES pH 7.4, 150 mM NaCl, 2 mM DTT, 2 mM MgCl2, 0.05% Tween 20, 20 °C; duplicates; settings: both partners purified

Kd [1] | Molecule | cryo-EM structure, 3.1 Å (human MICAL1)
 | Cc1cc2nc3c(=O)[nH]c(=O)nc-3n(C[C@H](O)[C@H](O)[C@H](O)COP(=O)(O)OP(=O)(O)OC[C@H]3O[C@@H](n4cnc5c(N)ncnc54)[C@H](O)[C@@H]3O)c2cc1C [FAD] | A deep cavity located between these subdomains is partially occupied by the FAD cofactor
580 ± 170 nM | biotinylated human MICAL1^CC (residues K918-G1067) (domain or fragment, UniProt Q8TDZ2 918-1067, looked up, biotin on the Avi tag (biotinylated in vivo), human MICAL1 coiled-coil (CC) domain, residues K918-G1067; The BLI construct; also called CC domain; coiled-coil domain; source: E. coli BL21(DE3)BirA, biotinylated in vivo, purified (HisTrap Talon, Superdex 200); not shown: Avi tag, C-terminal, kept) KEEEMKRFCKAQTIQRRLNEIEAALRELEAEGVKLELALRRQSSSPEQQKKLWVGQLLQLVDKKNSLVAEEAELMITVQELNLEEKQWQLDQELRGYMNREENLKTAADRQAEDQVLRKLVDLVNQRDALIRFQEERRLSELALGTGAQG | 
